Measured values taken from US8080529B2, “Macrolides with anti-inflammatory activity” (Glaxo Group Limited, priority 2005, dated 2011).
Where two headings read alike, the source gives them in different places.

Legend:
Type in all cases: cell-based
[1] = tested on: Hep G2; assay: Cytotoxicity assay (MTT), Hep G2 cell line; conditions: 24 h
Experimental: (§1) To determine whether the anti-inflammatory activity of the test compounds was due to observed inhibition of cytokine production and inhibition of proliferation in vitro, and was not a consequence of cellular cytotoxicity, measurement of succinate dehydrogenase activity in living cells was performed. Cells were cultured for 24 h in RPM medium as described above at 37° C. the presence of the test compounds at concentrations of 50 μM and 12.5 μM. MTT [3-(4,5-dimethylthiazole-2-yl)-2,5-diphenyl tetrazolium bromide] (Promega, USA), a detection reagent, was then added and the cultures were incubated for 0.5-2 h. The amount of MTT-Formazan produced was determined using a spectrophotometer at 490 nm (Mosmann, J. Immunol. Methods, 1983, 65: 55-63).
(§2) The percentage of inhibition of cell growth was calculated using the following formula: % inhibition of cell growth=[…].

[2] = tested on: IL-8; assay: Inhibition of IL-8 production by stimulated human peripheral blood leukocytes in vitro; conditions: Homo sapiens, Leukocyte, read-out: Percentage of inhibition of IL-8 production
Experimental: (§3) Test substances used in in vitro experiments were dissolved in dimethyl sulfoxide (DMSO) (Kemika, Croatia) at concentrations of 50 mM and 10 mM, and were further diluted to final concentrations of 50 μM and 10 μM in 1 mL Dulbecco's modified Eagle medium (DMEM) supplemented with 1% heat inactivated fetal bovine serum (FBS), 1% L-glutamine, 50 U/ml penicillin, 50 μg/ml streptomycin and 2.5 μg/mL Fungizone (amphotericin B). Media and all media supplements were purchased from Gibco, Australia, except the FBS was purchased from Sigma, USA.
(§4) Peripheral blood leukocytes (PBL) were obtained from venous blood of healthy volunteers by sedimentation on 2% dextran T-500 (Amersham Biosciences, USA) and subsequent centrifugations of leukocyte rich plasma.
(§5) Peripheral blood leukocytes (PBL), isolated as described above, were seeded in a 48-well plate at a concentration of 3 to 5×10^6 cell per well in culture medium consisting of RPMI 1640 medium (Institute of Immunology, Croatia) supplemented with 10% heat-inactivated fetal calf serum (FCS, Biowhittaker, USA), 100 U/ml penicillin (Gibco, Australia), 100 μg/ml streptomycin (Gibco, Australia) and 2 mM L-glutamine (Gibco, Australia), and preincubated with the test compounds for 2 h at 37° C., in an atmosphere of 5% CO2, and 90% humidity. Then, stimuli (Sigma, USA) were added to a final concentration of 2 μg/mL lipopolysaccharide (LPS), 1 μg/mL phorbol 12-myristate 13-acetate (PMA) or 120 μg/mL zymosan. Samples were incubated overnight under conditions described above. At the end of incubation, the supernatants were transferred to eppendorf tubes and centrifuged for 10 min at 1500×g. Concentrations of human TNF-α, IL-1β, IL-6 and IL-8 were determined in cell supernatants by sandwich ELISA, using capture and detection antibodies (R&D Systems, Minneapolis, Minn.) according to the manufacturer's recommendations.
(§6) Inhibition (as percentage) was calculated using the following formula: % inhibition=(1−concentration of cytokines in sample/concentration of cytokines in positive control)×100.
(§7) The positive control refers to LPS-, PMA- or zymosan-stimulated samples that were not preincubated with test compounds.

[3] = tested on: IL-1α; assay: Inhibition of IL-1 production by stimulated human peripheral blood leukocytes in vitro; conditions: Homo sapiens, Leukocyte, read-out: Percentage of inhibition of IL-1α production
[4] = tested on: A549; assay: Cytotoxicity assay (MTT), A549 cell line; conditions: 24 h
Experimental: as §1, §2

[5] = tested on: IL-6; assay: Inhibition of IL-6 production by stimulated human peripheral blood leukocytes in vitro; conditions: Homo sapiens, Leukocyte, read-out: Percentage of inhibition of IL-6 production
Experimental: as §3, §4, §5, §6, §7

[6] = tested on: TNF-α; assay: Inhibition of TNF-α production by stimulated human peripheral blood leukocytes in vitro; conditions: Homo sapiens, Leukocyte, read-out: Percentage of inhibition of TNF-α production
Experimental: as §3, §4, §5, §6, §7

## CC[C@H]1OC(=O)[C@H](C)[C@@H](O[C@H]2C[C@@](C)(OC)[C@@H](OC(=O)CCN3CCN(CCOCCO)CC3)[C@H](C)O2)[C@H](C)[C@@H](O[C@@H]2O[C@H](C)C[C@H](N(C)C)[C@H]2O)[C@](C)(OC)C[C@@H](C)C(=O)N[C@H](C)[C@@H](O)[C@]1(C)O [Example 18]
[1]; 12.5 μM
  Percentage of inhibition of cell growth: 5%
[1]; 50 μM
  Percentage of inhibition of cell growth: 3%
[2]; LPS-stimulated PBL
  inhibition at 10 µM: 6%
  inhibition at 50 µM: 0%
[2]; PMA-stimulated PBL
  inhibition at 10 µM: 7%
  inhibition at 50 µM: 0%
[2]; zymosan-stimulated PBL
  inhibition at 10 µM: 25%
  inhibition at 50 µM: 22%
[3]; LPS-stimulated PBL
  inhibition at 10 µM: 16%
  inhibition at 50 µM: 45%
[3]; PMA-stimulated PBL
  inhibition at 10 µM: 34%
  inhibition at 50 µM: 68%
[3]; zymosan-stimulated PBL
  inhibition at 10 µM: 51%
  inhibition at 50 µM: 90%
[4]; 12.5 μM
  Percentage of inhibition of cell growth: 0%
[4]; 50 μM
  Percentage of inhibition of cell growth: 0%
[5]; LPS-stimulated PBL
  inhibition at 10 µM: 10%
  inhibition at 50 µM: 23%
[5]; PMA-stimulated PBL
  inhibition at 10 µM: 33%
  inhibition at 50 µM: 61%
[5]; zymosan-stimulated PBL
  inhibition at 10 µM: 34%
  inhibition at 50 µM: 63%
[6]; LPS-stimulated PBL
  inhibition at 10 µM: 9%
  inhibition at 50 µM: 12%
[6]; PMA-stimulated PBL
  inhibition at 10 µM: 38%
  inhibition at 50 µM: 57%
[6]; zymosan-stimulated PBL
  inhibition at 10 µM: 21%
  inhibition at 50 µM: 30%

## CC[C@H]1OC(=O)[C@H](C)[C@@H](O[C@H]2C[C@@](C)(OC)[C@@H](OC(=O)CCN3CCN(CCCN4CCCCC4)CC3)[C@H](C)O2)[C@H](C)[C@@H](O[C@@H]2O[C@H](C)C[C@H](N(C)C)[C@H]2O)[C@](C)(OC)C[C@@H](C)C(=O)N[C@H](C)[C@@H](O)[C@]1(C)O [Example 22]
[1]; 12.5 μM
  Percentage of inhibition of cell growth: 3%
[1]; 50 μM
  Percentage of inhibition of cell growth: 1%
[2]; LPS-stimulated PBL
  inhibition at 10 µM: 0%
  inhibition at 50 µM: 5%
[2]; PMA-stimulated PBL
  inhibition at 10 µM: 0%
  inhibition at 50 µM: 15%
[2]; zymosan-stimulated PBL
  inhibition at 10 µM: 10%
  inhibition at 50 µM: 30%
[3]; LPS-stimulated PBL
  inhibition at 10 µM: 5%
  inhibition at 50 µM: 46%
[3]; PMA-stimulated PBL
  inhibition at 10 µM: 14%
  inhibition at 50 µM: 56%
[3]; zymosan-stimulated PBL
  inhibition at 10 µM: 57%
  inhibition at 50 µM: 76%
[4]; 12.5 μM
  Percentage of inhibition of cell growth: 5%
[4]; 50 μM
  Percentage of inhibition of cell growth: 0%
[5]; LPS-stimulated PBL
  inhibition at 10 µM: 3%
  inhibition at 50 µM: 28%
[5]; PMA-stimulated PBL
  inhibition at 10 µM: 16%
  inhibition at 50 µM: 60%
[5]; zymosan-stimulated PBL
  inhibition at 10 µM: 28%
  inhibition at 50 µM: 51%
[6]; LPS-stimulated PBL
  inhibition at 10 µM: 0%
  inhibition at 50 µM: 23%
[6]; PMA-stimulated PBL
  inhibition at 10 µM: 0%
  inhibition at 50 µM: 55%
[6]; zymosan-stimulated PBL
  inhibition at 10 µM: 0%
  inhibition at 50 µM: 35%

## CC[C@H]1OC(=O)[C@H](C)[C@@H](O[C@H]2C[C@@](C)(OC)[C@@H](OC(=O)CCNC(C)C)[C@H](C)O2)[C@H](C)[C@@H](O[C@@H]2O[C@H](C)C[C@H](N(C)C)[C@H]2O)[C@](C)(OC)C[C@@H](C)C(=O)N[C@H](C)[C@@H](O)[C@]1(C)O [Example 23]
[1]; 12.5 μM
  Percentage of inhibition of cell growth: 6%
[1]; 50 μM
  Percentage of inhibition of cell growth: 5%
[2]; LPS-stimulated PBL
  inhibition at 10 µM: 0%
  inhibition at 50 µM: 10%
[2]; PMA-stimulated PBL
  inhibition at 10 µM: 0%
  inhibition at 50 µM: 15%
[2]; zymosan-stimulated PBL
  inhibition at 10 µM: 22%
  inhibition at 50 µM: 43%
[3]; LPS-stimulated PBL
  inhibition at 10 µM: 2%
  inhibition at 50 µM: 39%
[3]; PMA-stimulated PBL
  inhibition at 10 µM: 12%
  inhibition at 50 µM: 69%
[3]; zymosan-stimulated PBL
  inhibition at 10 µM: 67%
  inhibition at 50 µM: 75%
[4]; 12.5 μM
  Percentage of inhibition of cell growth: 0%
[4]; 50 μM
  Percentage of inhibition of cell growth: 0%
[5]; LPS-stimulated PBL
  inhibition at 10 µM: 0%
  inhibition at 50 µM: 14%
[5]; PMA-stimulated PBL
  inhibition at 10 µM: 20%
  inhibition at 50 µM: 59%
[5]; zymosan-stimulated PBL
  inhibition at 10 µM: 35%
  inhibition at 50 µM: 45%
[6]; LPS-stimulated PBL
  inhibition at 10 µM: 0%
  inhibition at 50 µM: 19%
[6]; PMA-stimulated PBL
  inhibition at 10 µM: 5%
  inhibition at 50 µM: 54%
[6]; zymosan-stimulated PBL
  inhibition at 10 µM: 0%
  inhibition at 50 µM: 37%

## CC[C@H]1OC(=O)[C@H](C)[C@@H](O[C@H]2C[C@@](C)(OC)[C@@H](OC(=O)CCN(C)C3CCCCC3)[C@H](C)O2)[C@H](C)[C@@H](O[C@@H]2O[C@H](C)C[C@H](N(C)C)[C@H]2O)[C@](C)(OC)C[C@@H](C)C(=O)N[C@H](C)[C@@H](O)[C@]1(C)O [Example 25]
[1]; 12.5 μM
  Percentage of inhibition of cell growth: 10%
[1]; 50 μM
  Percentage of inhibition of cell growth: 8%
[2]; LPS-stimulated PBL
  inhibition at 10 µM: 0%
  inhibition at 50 µM: 45%
[2]; PMA-stimulated PBL
  inhibition at 10 µM: 0%
  inhibition at 50 µM: 34%
[2]; zymosan-stimulated PBL
  inhibition at 10 µM: 17%
  inhibition at 50 µM: 63%
[3]; LPS-stimulated PBL
  inhibition at 10 µM: 22%
  inhibition at 50 µM: 61%
[3]; PMA-stimulated PBL
  inhibition at 10 µM: 58%
  inhibition at 50 µM: 86%
[3]; zymosan-stimulated PBL
  inhibition at 10 µM: 82%
  inhibition at 50 µM: 93%
[4]; 12.5 μM
  Percentage of inhibition of cell growth: 8%
[4]; 50 μM
  Percentage of inhibition of cell growth: 4%
[5]; LPS-stimulated PBL
  inhibition at 10 µM: 4%
  inhibition at 50 µM: 62%
[5]; PMA-stimulated PBL
  inhibition at 10 µM: 51%
  inhibition at 50 µM: 87%
[5]; zymosan-stimulated PBL
  inhibition at 10 µM: 51%
  inhibition at 50 µM: 86%
[6]; LPS-stimulated PBL
  inhibition at 10 µM: 0%
  inhibition at 50 µM: 71%
[6]; PMA-stimulated PBL
  inhibition at 10 µM: 41%
  inhibition at 50 µM: 91%
[6]; zymosan-stimulated PBL
  inhibition at 10 µM: 19%
  inhibition at 50 µM: 88%
